In ChEMBL document CHEMBL1201862, “PubChem BioAssay data set” (2004):
Calls of active or inactive are those of the source.

Legend:
[1] = cells; conditions: HEK293
[2] = cells; conditions: A549
[3] = HepG2 cell cytotoxicity, dose response, cytotoxicity control, ATP luminescence, cherry-pick, set 6 (AID 1053125); assay type: functional, cell-based
[4] = A Cell-Based Confirmatory Screen for Compounds that Inhibit VEEV, TC-83 (8).; assay type: functional
[5] = A Cell-Based Confirmatory Screen for Compounds that Inhibit VEEV, TC-83 (5).; assay type: functional
[6] = A Cell-Based Confirmatory Screen for Compounds that Inhibit VEEV TC-83 (4).; assay type: functional
[7] = target: Metabotropic glutamate receptor 3 (Rattus norvegicus, UniProt P31422); assay: mGlu3 negative allosteric modulator potency, dose response, HEK/GIRK cells, thallium flux, rat (AID 651839); assay type: functional
[8] = target: T1, Oxysterols receptor LXR-beta (Homo sapiens, UniProt P55055); assay type: functional, cell-based;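 also: agonist activity at LXR measured by a cell-based luminescence readout across a dose range, run as a counterscreen for daf-12 agonists; HEK293 cells with Gal4-LXR fusion and GAL4-driven luciferase reporter; potency for activation of Gal4-LXR reporter so compounds are agonists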
T1 sequence (P55055 whole entry): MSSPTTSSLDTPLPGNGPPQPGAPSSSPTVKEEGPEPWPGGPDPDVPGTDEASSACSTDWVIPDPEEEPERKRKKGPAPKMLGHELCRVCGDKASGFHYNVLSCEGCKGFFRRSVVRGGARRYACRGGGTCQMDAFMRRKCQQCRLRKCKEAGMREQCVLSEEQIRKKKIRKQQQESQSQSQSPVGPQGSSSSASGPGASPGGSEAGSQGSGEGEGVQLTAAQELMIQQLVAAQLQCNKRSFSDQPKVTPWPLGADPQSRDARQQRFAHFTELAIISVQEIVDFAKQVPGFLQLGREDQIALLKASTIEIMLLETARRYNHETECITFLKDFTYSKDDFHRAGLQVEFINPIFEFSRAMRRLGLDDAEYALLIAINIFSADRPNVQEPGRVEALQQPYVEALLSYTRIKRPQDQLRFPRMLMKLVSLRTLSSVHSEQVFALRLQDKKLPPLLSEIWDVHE

[9] = P. falciparum Dd2 growth inhibitors, dose response, SYBR Green, dry powder samples, set 4 (AID 1159572); assay type: functional, cell-based
[10] = P. falciparum Dd2 growth inhibitors, dose response, SYBR Green, cherry-picked samples (AID 1159567); assay type: functional, cell-based
[11] = P. falciparum 3D7-ScDHODH growth inhibitors, dose response, SYBR Green, dry powder samples (AID 1159570); assay type: functional, cell-based;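 also: parasite growth measured after 72 hours of compound exposure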
[12] = HepG2 cell cytotoxicity, dose response, cytotoxicity control, plate reader, dry powder samples (AID 1159569); assay type: functional, cell-based;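 also: inhibitor potency with signal falling toward the positive control level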
[13] = P. falciparum ATP4 D1247Y mutant growth inhibitors, dose response, NITD609-resistant line, SYBR Green, dry powder (AID 1159571); assay type: functional, cell-based;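 also: parasites synchronized at ring stage by sorbitol before testing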
[14] = P. falciparum Dd2 growth inhibitors, dose response, SYBR Green, dry powder samples (AID 1159566); assay type: functional, cell-based;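 also: potency for growth inhibition with lower SYBR green DNA signal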
[15] = HepG2 cell cytotoxicity, dose response, cytotoxicity control, cherry-picked samples (AID 1159577); assay type: functional, cell-based
[16] = HepG2 cell cytotoxicity, dose response, cytotoxicity control, plate reader, dry powder, set 6 (AID 743311); assay type: functional, cell-based
[17] = A549 cell cytotoxicity, dose response, cytotoxicity control, plate reader, dry powder, set 6 (AID 743312); assay type: functional, cell-based
[18] = cells; conditions: HEK293; remark: listed apart in the source
[19] = Concentration-dependent survival of SW480 colon cancer line, luminescence detection with CellTiter-Glo, half-maximal inhibitory concentration (AID 1117338); assay type: functional
[20] = HeLa 2N DNA content increase, dose response, cell-based, IC50 (AID 1117349); assay type: functional
[21] = RKO cell viability reduction, dose response, CellTiter-Glo luminescence (AID 1117322); assay type: functional
[22] = SNU-C1 cell viability reduction, dose response, CellTiter-Glo luminescence (AID 1117323); assay type: functional, cell-based
[23] = HeLa 4N DNA content increase, dose response, cell-based, IC50 (AID 1117351); assay type: functional
[24] = cytotoxicity toward Colo320 cells – cell-based, CellTiter-Glo luminescence, IC50, dose response (AID 1117334); assay type: functional; conditions: COLO 320
[25] = CellTiter-Glo luminescent dose response of DLD-1 viability loss (AID 1117352); assay type: functional
[26] = cytotoxicity toward HT-29 cells – cell-based, CellTiter-Glo luminescence, IC50, dose response (AID 1117330); assay type: functional
[27] = cytotoxicity toward HCT116 cells – cell-based, CellTiter-Glo luminescence, IC50, dose response (AID 1117332); assay type: functional; conditions: HCT-116

Metabotropic glutamate receptor 3, sequence (P31422 whole entry, the tested form may be a part): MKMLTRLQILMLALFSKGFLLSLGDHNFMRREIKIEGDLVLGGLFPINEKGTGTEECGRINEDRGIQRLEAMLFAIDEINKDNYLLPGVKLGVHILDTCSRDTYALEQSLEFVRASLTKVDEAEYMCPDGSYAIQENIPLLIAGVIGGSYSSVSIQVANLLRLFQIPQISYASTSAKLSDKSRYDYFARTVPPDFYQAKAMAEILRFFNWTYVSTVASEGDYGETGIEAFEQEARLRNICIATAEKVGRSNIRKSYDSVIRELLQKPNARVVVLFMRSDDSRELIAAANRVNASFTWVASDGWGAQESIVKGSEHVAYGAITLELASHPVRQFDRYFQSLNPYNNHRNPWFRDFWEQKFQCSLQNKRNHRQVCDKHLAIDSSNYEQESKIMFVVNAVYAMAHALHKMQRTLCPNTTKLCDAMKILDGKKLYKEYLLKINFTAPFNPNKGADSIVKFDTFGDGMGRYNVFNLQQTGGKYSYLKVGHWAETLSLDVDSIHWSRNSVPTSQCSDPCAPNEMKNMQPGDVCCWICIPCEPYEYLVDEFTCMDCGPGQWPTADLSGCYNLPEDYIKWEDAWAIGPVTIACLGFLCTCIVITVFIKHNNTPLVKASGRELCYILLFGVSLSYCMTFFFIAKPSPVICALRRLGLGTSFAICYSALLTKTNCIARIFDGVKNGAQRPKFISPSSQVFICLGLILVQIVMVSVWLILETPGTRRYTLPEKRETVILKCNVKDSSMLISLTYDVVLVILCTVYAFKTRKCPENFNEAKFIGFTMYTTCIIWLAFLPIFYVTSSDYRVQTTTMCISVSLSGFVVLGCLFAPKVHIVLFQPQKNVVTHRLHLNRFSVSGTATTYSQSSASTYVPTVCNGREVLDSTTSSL

Question: Which AC50 [1] does the source give for `O=c1oc2cc(O)ccc2cc1-c1nc2ccccc2o1` here?
Answer: Its AC50 is 26.6 µM (active).

Question: And the AC50 [2]?
Answer: The AC50 was > 52 µM (inactive).

Question: And the AC50 [3]?
Answer: Its AC50 is > 52 µM (inactive).

Question: Which IC50 [4] does the source give for `O=c1c2cc([N+](=O)[O-])ccc2nc(CN2CCNCC2)n1-c1ccccc1F` here?
Answer: The IC50 was < 0.198 µM (active).

Question: And the IC50 [5]?
Answer: Its IC50 is < 0.23 µM (active).

Question: And the IC50 [6]?
Answer: The IC50 was 0.073 µM (active).

Question: Which IC50 [7] does the source give for `COc1ccc(OC)c(-c2ccc3cc(C(=O)N4CCCC(CO)C4)ccc3c2)c1` (stereo not drawn) here?
Answer: The IC50 was 9.16 µM (active).

Question: With `Nc1ncc(Br)cc1/N=C/c1ccccc1` as the compound, how does the EC50 [8] read?
Answer: The EC50 was > 67.5 µM (inactive).

Question: Which AC50 [9] does the source give for `CCCNC(=O)N1CCC2(CC1)CN(C(C)=O)[C@@H](CO)c1[nH]c3cc(OC)ccc3c12` here?
Answer: Its AC50 is 9.51 µM (active).

Question: Which AC50 [10] does the source give for `COc1ccc(C#Cc2ccc3c(c2)[C@@H]2[C@@H](CCN2C(=O)C2CCCC2)[C@@H](CO)N3)cc1` here?
Answer: Its AC50 is 2.82 µM (active).

Question: And the AC50 [11]?
Answer: Its AC50 is 1.31 µM (active).

Question: What about the AC50 [12] of the same compound?
Answer: Its AC50 is > 100 µM (inactive).

Question: And the AC50 [13]?
Answer: Its AC50 is 1.1 µM (active).

Question: What about the AC50 [14] of the same compound?
Answer: The AC50 was 1.09 µM (active).

Question: For `Cc1cccc(S(=O)(=O)N2CCCCN3[C@@H](CO)[C@@H](c4ccc(C#CC5CC5)cc4)[C@@H]3C2)c1`, which AC50 [10] is on record?
Answer: Its AC50 is 1.3 µM (active).

Question: And the AC50 [15]?
Answer: Its AC50 is 14.4 µM (active).

Question: For `CC(C)c1ccccc1OCCn1c(=S)[nH]c2ccccc21`, which AC50 [16] is on record?
Answer: Its AC50 is 32.9 µM (active).

Question: What about the AC50 [17] of the same compound?
Answer: Its AC50 is 21.1 µM (active).

Question: And the AC50 [18]?
Answer: Its AC50 is 27.6 µM (active).

Question: For `O=c1c(-c2ccccc2)c1-c1ccccc1` [DIPHENCYPRONE], which IC50 [19] is on record?
Answer: Its IC50 is > 20 µM (inactive).

Question: What about the IC50 [20] of the same compound?
Answer: The IC50 was > 10 µM (inactive).

Question: What about the IC50 [21] of the same compound?
Answer: Its IC50 is > 20 µM (inactive).

Question: What about the IC50 [22] of the same compound?
Answer: The IC50 was > 20 µM (inactive).

Question: What about the IC50 [23] of the same compound?
Answer: The IC50 was > 10 µM (inactive).

Question: And the IC50 [24]?
Answer: The IC50 was 3.1 µM (active).

Question: What about the IC50 [25] of the same compound?
Answer: Its IC50 is 4.21 µM (active).

Question: And the IC50 [26]?
Answer: The IC50 was > 20 µM (inactive).

Question: And the IC50 [27]?
Answer: The IC50 was > 20 µM (inactive).
